In brackets after ≈: the same amount, converted by molar mass.
Tests used:
[1] = Metabolic stability in mouse liver microsomes assessed as half life; assay type: ADME, Microsome
[2] = Metabolic stability in human liver microsomes assessed as half life; assay type: ADME, Microsome
MOLM-13 = assay: cells; details: Homo sapiens, MOLM-13, 72 h
Description: Antiproliferative activity against human MOLM-13 cells assessed as inhibition of cell viability incubated for 72 hrs by Cell Titer Glo assay

[3] = Solubility of compound at pH 7; assay type: physicochemical; details: buffer
[4] = AUC (0 to infinity) in C57BL mouse at 10 mg/kg, po or 2 mg/kg, iv; assay type: ADME, organism-based; details: in vivo
[5] = Protein binding in mouse plasma; assay type: ADME, cell-free; details: read-out: PPB (converted)
[6] = Cmax in C57BL mouse at 10 mg/kg, po or 2 mg/kg, iv; assay type: ADME, organism-based; details: in vivo
[7] = Tmax in C57BL mouse at 10 mg/kg, po or 2 mg/kg, iv; assay type: ADME, organism-based; details: in vivo
[8] = Half life in C57BL mouse at 10 mg/kg, po or 2 mg/kg, iv; assay type: ADME, organism-based; details: in vivo
[9] = Unbound clearance in C57BL mouse at 10 mg/kg, po or 2 mg/kg, iv; assay type: ADME, organism-based; details: in vivo
[10] = Protein binding in human plasma; assay type: ADME, cell-free; details: read-out: PPB (converted)
[11] = Oral bioavailability in C57BL mouse at 10 mg/kg; assay type: ADME, organism-based; details: in vivo
[12] = Volume of distribution at steady state in C57BL mouse at 10 mg/kg, po or 2 mg/kg, iv; assay type: ADME, organism-based; details: in vivo
[13] = Solubility of compound in FaSSIF at pH 6.5; assay type: physicochemical
[14] = Solubility of compound in SGF at pH 1; assay type: physicochemical

Structure (SMILES) | half-life [1] [h] | half-life [2] [h] | IC50 (MOLM-13) [nM] | solubility [3] [µM] | AUC(0-inf) [4] [ng·h/mL] | fraction unbound [5] | Cmax [6] [ng/mL] | Tmax [7] [h] | half-life [8] [h] | CL free [9] [mL/min/kg] | fraction unbound [10] | bioavailability [11] [%] | Vdss [12] [L/kg] | solubility at 24 h [13] [µg/mL] | solubility at 24 h [14] [µg/mL]
CCn1c(CO)nn(-c2cc3c(cc2F)c(=O)c(-c2c(F)cccc2Cl)cn3C(C)C)c1=O | > 3 | > 3 | 29 | > 400 | – | – | – | – | – | – | – | – | – | – | –
CCn1c(CO)nn(-c2cc3c(cc2F)c(=O)c(-c2ccccc2C)cn3C(C)C)c1=O | > 3 | > 3 | 9.3 | 83 (≈ 36.2 µg/mL) | – | – | – | – | – | – | – | – | – | – | –
C=C(C)c1nn(-c2c(F)cccc2Cl)c(=O)c2cc(F)c(-n3nc(CO)n(CC)c3=O)cc12 | > 3 | > 3 | 0.39 | 259 (≈ 123 µg/mL) | – | – | – | – | – | – | – | – | – | – | –
CCn1c(CO)nn(-c2cc3c(C(C)C)nn(-c4c(F)cccc4Cl)c(=O)c3cc2F)c1=O | > 3 | > 3 | 0.39 | < 4 | 50400 | 0.025 | 5730 | 1.67 | 5.02 | 144 | 0.044 | 103 | 1.43 | – | –
CCn1c(CO)nn(-c2cc3c(C(C)C)cn(-c4c(F)cccc4Cl)c(=O)c3cc2F)c1=O | > 3 | > 3 | – | < 4 | – | – | – | – | – | – | – | – | – | – | –
CCn1c(CO)nn(-c2cc3c([C@H](C)C(F)(F)F)nn(-c4ccccc4C)c(=O)c3cc2F)c1=O | > 3 | > 3 | 1.6 | < 4 | – | – | – | – | – | – | – | – | – | – | –
CCn1c(CO)nn(-c2cc3c(C(C)C)cn(-c4ccccc4C)c(=O)c3cc2F)c1=O | > 3 | > 3 | – | 371 (≈ 162 µg/mL) | 57200 | 0.088 | 6170 | 1.67 | 5.68 | 41.4 | 0.099 | 125 | 1.64 | 67 (≈ 153 µM) | 25 (≈ 57.3 µM)
CCn1c(CO)nn(-c2cc3c(cc2F)C(=O)C(c2ccccc2C)CN3C(C)C)c1=O (configuration not stated) | – | – | 0.47 | – | – | – | – | – | – | – | – | – | – | – | –
CCn1c(CO)nn(-c2nc3c(C(C)C)nn(-c4ccccc4C)c(=O)c3cc2F)c1=O | > 3 | > 3 | 3.3 | 133 (≈ 58.3 µg/mL) | – | – | – | – | – | – | – | – | – | – | –
CCn1c(CO)nn(-c2cc3c(cc2F)C(=O)N(c2ccccc2C)C[C@H]3C(C)C)c1=O | – | – | 19 | – | – | – | – | – | – | – | – | – | – | – | –
CCn1c(CO)nn(-c2cc3c([C@@H](C)C(F)(F)F)nn(-c4ccccc4C)c(=O)c3cc2F)c1=O | > 3 | 2.98 | 1.4 | < 4 | – | – | – | – | – | – | – | – | – | – | –
CCn1c(CO)nn(-c2cc3c(cc2F)C(=O)N(c2ccccc2C)C[C@@H]3C(C)C)c1=O | – | – | 8.2 | – | – | – | – | – | – | – | – | – | – | – | –
CCn1c(CO)nn(-c2cc3c(C(C)C)nn(-c4ccccc4C)c(=O)c3cc2F)c1=O | > 3 | > 3 | 0.72 | > 400 | 35100 | 0.134 | 4260 | 0.83 | 4.55 | 40.7 | 0.122 | 111 | 1.94 | 99 (≈ 226 µM) | 78 (≈ 178 µM)
CCn1c(CO)nn(-c2cc3c(cc2F)C(=O)N(c2c(F)cccc2Cl)CN3C(C)C)c1=O | – | – | 0.86 | – | – | – | – | – | – | – | – | – | – | – | –
CCn1c(CO)nn(-c2cc3c(C(C)C)cc(-c4ccccc4C)c(=O)n3cc2F)c1=O | > 3 | 2.33 | 0.72 | – | 21800 | 0.032 | 3210 | 0.67 | 4.03 | 245 | 0.049 | 102 | 2.12 | 198 (≈ 454 µM) | 43 (≈ 98.5 µM)

Source: ChEMBL document CHEMBL6083217, “Identification of isoquinolinone DHODH inhibitor isosteres” (Bioorg Med Chem Lett, 2024)
